Results taken from patent US8008311B2, “Methods and compostions utilizing quinazolinones” (Cytokinetics, Inc., priority 2003, dated 2011).
“And” between values parts separate entries of the source, which are not always exact repeats. Identical values can stand only once. Like-named read-outs stand apart in the source and are kept apart here. Each block holds one compound with its values, some of them ahead of it.

What was measured:
A549 cells = conditions: cited from earlier work
KSP motor domain = molecular target: T1, KSP motor domain (Homo sapiens, UniProt P52732); assay: KSP ATPase assay (IC50 / Ki); type: biochemical; conditions: for Ki: synthesized as single enantiomer
T1 construct: 100 nM KSP motor domain, 50 μg/ml microtubules
T1 sequence (P52732 18-359 limits assumed): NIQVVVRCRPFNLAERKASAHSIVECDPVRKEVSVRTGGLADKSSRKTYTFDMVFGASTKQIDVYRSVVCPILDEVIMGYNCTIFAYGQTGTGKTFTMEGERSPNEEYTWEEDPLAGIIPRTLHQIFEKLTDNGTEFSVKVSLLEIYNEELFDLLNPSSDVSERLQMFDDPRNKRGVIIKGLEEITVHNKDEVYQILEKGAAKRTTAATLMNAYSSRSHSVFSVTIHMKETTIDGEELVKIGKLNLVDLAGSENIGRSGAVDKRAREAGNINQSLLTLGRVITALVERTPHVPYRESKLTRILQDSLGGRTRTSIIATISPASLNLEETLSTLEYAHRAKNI
Method: One measure of inhibition is IC50, defined as the concentration of the composition at which the activity of KSP is decreased by fifty percent. Preferred compositions have IC50's of less than about 1 mM, with preferred embodiments having IC50's of less than about 100 μM, with more preferred embodiments having IC50's of less than about 10 μM, with particularly preferred embodiments having IC50's of less than about 1 μM, and especially preferred embodiments having IC50's of less than about 100 nM, and with the most preferred embodiments having IC50's of less than about 10 nM. Measurement of IC50 is done using an ATPase assay.
The Ki for a compound is determined from the IC50 based on three assumptions. First, only one compound molecule binds to the enzyme and there is no cooperativity. […] Third, the enzymatic rate of the enzyme-inhibitor complex is zero. The rate (i.e., compound concentration) data are fitted to the equation: […]
Where V is the observed rate, Vmax is the rate of the free enzyme, I0 is the inhibitor concentration, E0 is the enzyme concentration, and Kd is the dissociation constant of the enzyme-inhibitor complex.
Measurement of a composition's IC50 for KSP activity uses an ATPase assay. The following solutions are used: Solution 1 consists of 3 mM phosphoenolpyruvate potassium salt (Sigma P-7127), 2 mM ATP (Sigma A-3377), 1 mM IDTT (Sigma D-9779), 5 μM paclitaxel (Sigma T-7402), 10 ppm antifoam 289 (Sigma A-8436), 25 mM Pipes/KOH pH 6.8 (Sigma P6757), 2 mM MgC12 (VWR JT400301), and 1 mM EGTA (Sigma E3889). Solution 2 consists of 1 mM NADH (Sigma N8129), 0.2 mg/ml BSA (Sigma A7906), pyruvate kinase 7 U/ml, L-lactate dehydrogenase 10 U/ml (Sigma P0294), 100 nM KSP motor domain, 50 μg/ml microtubules, 1 mM DTT (Sigma D9779), 5 μM paclitaxel (Sigma T-7402), 10 ppm antifoam 289 (Sigma A-8436), 25 mM Pipes/KOH pH 6.8 (Sigma P6757), 2 mM MgC12 (VWR JT4003-01), and 1 mM EGTA (Sigma E3889). Serial dilutions (8-12 two-fold dilutions) of the composition are made in a 96-well microtiter plate (Corning Costar 3695) using Solution 1. Following serial dilution each well has 50 μl of Solution 1. The reaction is started by adding 50 μl of solution 2 to each well. This may be done with a multichannel pipettor either manually or with automated liquid handling devices. The microtiter plate is then transferred to a microplate absorbance reader and multiple absorbance readings at 340 nm are taken for each well in a kinetic mode. The observed rate of change, which is proportional to the ATPase rate, is then plotted as a function of the compound concentration. For a standard IC50 determination the data acquired is fit by the following four parameter equation using a nonlinear fitting program (e.g., Grafit 4): […]
Where y is the observed rate and x the compound concentration.

[1] = test system: Skov-3 cells (human ovarian cancer); assay: FACS analysis of cell cycle stage by DNA content; type: cell-based; conditions: 24 hours; 10 nM paclitaxel, 400 nM quinazolinone 1, 200 nM quinazolinone 2
Method: FACS analysis to determine cell cycle stage by measuring DNA content was performed as follows. Skov-3 cells (human ovarian cancer) were split 1:10 for plating in 10 cm dishes and grown to subconfluence with RPMI 1640 medium containing 5% fetal bovine serum (FBS). The cells were then treated with either 10 nM paclitaxel, 400 nM quinazolinone 1, 200 nM quinazolinone 2, or 0.25% DMSO (vehicle for compounds) for 24 hours. Cells were then rinsed off the plates with PBS containing 5 mM EDTA, pelleted, washed once in PBS containing 1% FCS, and then fixed overnight in 85% ethanol at 4° C. Before analysis, the cells were pelleted, washed once, and stained in a solution of 10 μg propidium iodide and 250 μg of ribonuclease (RNAse) A per milliliter at 37° C. for half an hour. Flow cytometry analysis was performed on a Becton-Dickinson FACScan, and data from 10,000 cells per sample was analyzed with Modfit software.

SKOV3 tumor xenograft [2] = assay: SKOV3 tumor xenograft in nude mice; type: in vivo; conditions: for Mice with Partial Tumor Shrinkage / Mortalities: 8 mice at start
Method: Female nude mice weighing approximately 20 g were implanted s.c. by trocar with fragments of human tumor carcinomas harvested from s.c. growing tumors in nude mice host. When the tumors were approximately 77 mg in size, the animals were pair matched into treatment and control groups. Each group contained 8 tumored mice, each of which was ear-tagged and followed individually throughout the experiment. Initial doses (10 mL/kg of a 66 mM Citrate buffer, pH 5.0/0.9% Saline/10% Tween 80 formulation of each test compound having a maximum concentration of 5 mg/mL) were given on Day 1 following pair matching, dosing at the levels and schedules indicated.
Mice were weighed twice weekly, and tumor measurements were taken by calipers twice weekly, starting on Day 1. These tumor measurements were converted to mg tumor weight by a well-known formula, W^2×L/2. The experiment was terminated when the control group tumor size reached an average of 1 gram. Upon termination, the mice were weighted, sacrificed and their tumors excised. Tumors were weighted and the mean treated tumor weight per group was calculated. In this model, the change in mean treated tumor weight/the change in mean control tumor weight×100% (ΔT/ΔC) was subtracted from 100% to give the tumor growth inhibition (TGI) for each group.

SKOV3 tumor xenograft [3] = assay: SKOV3 tumor xenograft in nude mice; type: in vivo
[4] = enantiomer 1 from chiral chromatography, read-out: IC50 (μM) Enantiomer 1
[5] = enantiomer 2 from chiral chromatography, read-out: IC50 (μM) Enantiomer 2
[6] = racemate, read-out: IC50 (μM) Racemate
[7] = R enantiomer, read-out: Ki (μM) R enantiomer
[8] = S enantiomer, read-out: Ki (μM) S enantiomer
[9] = 20 mg/kg daily × 5, i.p., Tables A-D
[10] = 80 mg/kg every 3 days × 4, i.v.
[11] = 50 mg/kg every 3 days × 4, i.v.

Structure (SMILES): O=c1[nH]cc(F)c(=O)[nH]1 [5-fluorouracil]
GI50 (A549 cells): 1 µM

IC50 (KSP motor domain; [4]): > 40 µM
IC50 (KSP motor domain; [5]): 6.6 µM
IC50 (KSP motor domain; [6]): 12.7 µM
Structure (SMILES): CCC(c1nc2ccccc2c(=O)n1Cc1ccccc1)N(CCN(C)C)C(=O)c1cccc2ccccc12 (single isomer, unassigned)

Ki (KSP motor domain; [7]): < 0.05 µM
Ki (KSP motor domain; [8]): > 0.5 µM
Structure (SMILES): CCC(c1nc2cc(Cl)ccc2c(=O)n1Cc1ccccc1)N(CCN)C(=O)c1ccc(Br)cc1 (centres unmarked)

IC50 (KSP motor domain; [4]): > 40 µM
IC50 (KSP motor domain; [5]): 1.3 µM
IC50 (KSP motor domain; [6]): 2.6 µM
Structure (SMILES): CC(c1nc2ccccc2c(=O)n1Cc1ccccc1)N(CCN(C)C)C(=O)c1ccc(Br)cc1 (single isomer, unassigned)

IC50 (KSP motor domain; [4]): 0.28 µM
IC50 (KSP motor domain; [5]): 0.03 µM
IC50 (KSP motor domain; [6]): 0.06 µM
Structure (SMILES): CCC(c1nc2ccccc2c(=O)n1Cc1ccccc1)N(CCN(C)C)C(=O)c1ccc(Br)cc1 (single isomer, unassigned)

Structure (SMILES): CC(=O)O[C@H]1C(=O)[C@@]2(C)[C@H]([C@H](OC(=O)c3ccccc3)[C@]3(O)C[C@H](OC(=O)[C@H](O)[C@@H](NC(=O)c4ccccc4)c4ccccc4)C(C)=C1C3(C)C)[C@]1(OC(C)=O)CO[C@@H]1C[C@@H]2O [Taxol, paclitaxel, reference compound]
shift of cell cycle stage (DNA content) [1]: caused a shift in the population of cells from a G0/G1 cell cycle stage (2n DNA content) to a G2/M cell cycle stage (4n DNA content)
Maximum Weight Loss (SKOV3 tumor xenograft [2]; [9]): 16.5% and 7.49% and 12.26% and 8.77%
Mean % Tumor Shrinkage (SKOV3 tumor xenograft [2]; [9]): 27.9% and 43.5% and 44.4%
Tumor Growth Inhibition (SKOV3 tumor xenograft [2]; 20 mg/kg daily × 5, i.p., separate experiments Tables A-D): 91.7% and 99.7% and 87.1% and 73.0%
GI50 (A549 cells): 0.004 µM

Structure (SMILES): CCC(c1nc2cc(Cl)ccc2c(=O)n1Cc1ccccc1)N(CCCN(C)C)C(=O)c1ccc(Br)cc1 (centres unmarked) [Compound 5]
Final Tumor Weight (Mean ± SEM) (SKOV3 tumor xenograft [2]; 25 mg/kg daily × 5, i.v.): 405.6 ± 124.8 mg
Maximum Weight Loss (SKOV3 tumor xenograft [2]; 25 mg/kg daily × 5, i.v.): None
Mean % Tumor Shrinkage (SKOV3 tumor xenograft [2]; 25 mg/kg daily × 5, i.v.): 56.3%
Tumor Growth Inhibition (SKOV3 tumor xenograft [2]; 25 mg/kg daily × 5, i.v.): 71.0%
Mice with Partial Tumor Shrinkage (SKOV3 tumor xenograft [2]; 25 mg/kg daily × 5, i.v.): 1
Mortalities (SKOV3 tumor xenograft [2]; 25 mg/kg daily × 5, i.v.): 0

Structure (SMILES): CCC(c1nc2cc(Cl)ccc2c(=O)n1Cc1ccccc1)N(CCCN)Cc1ccc(Br)cc1 (centres unmarked) [Compound 1]
Maximum Weight Loss (SKOV3 tumor xenograft [2]; [10]): None
Tumor Growth Inhibition (SKOV3 tumor xenograft [2]; [10]): 41.5%
Mice with Partial Tumor Shrinkage (SKOV3 tumor xenograft [2]; [10]): 0
Mortalities (SKOV3 tumor xenograft [2]; [10]): 1
Final Tumor Weight (Mean ± SEM) (SKOV3 tumor xenograft [3]; [10]): 554.3 ± 76.8 mg

Ki (KSP motor domain; [7]): < 0.1 µM
Ki (KSP motor domain; [8]): 2 µM
Structure (SMILES): CC(c1nc2ccccc2c(=O)n1Cc1ccccc1)N(CCN)C(=O)c1ccc(Br)cc1 (centres unmarked)

Structure (SMILES): CCC(c1nc2cc(Cl)ccc2c(=O)n1Cc1ccccc1)N(CC1CNC1)C(=O)c1ccc(C)cc1 (centres unmarked) [Compound 3]
Maximum Weight Loss (SKOV3 tumor xenograft [2]; 60 mg/kg daily × 5, i.v.): 2.76%
Tumor Growth Inhibition (SKOV3 tumor xenograft [2]; 60 mg/kg daily × 5, i.v.): 48.3%
Mice with Partial Tumor Shrinkage (SKOV3 tumor xenograft [2]; 60 mg/kg daily × 5, i.v.): 0
Mortalities (SKOV3 tumor xenograft [2]; 60 mg/kg daily × 5, i.v.): 1
Final Tumor Weight (Mean ± SEM) (SKOV3 tumor xenograft [3]; 60 mg/kg daily × 5, i.v.): 806.1 ± 163.8 mg

Structure (SMILES): COc1cccc2c1C(=O)c1c(O)c3c(c(O)c1C2=O)C[C@@](O)(C(=O)CO)C[C@@H]3O[C@H]1C[C@H](N)[C@H](O)[C@H](C)O1 [doxorubicin]
GI50 (A549 cells): 0.063 µM

Structure (SMILES): CCC(c1nc2cc(F)ccc2c(=O)n1Cc1ccccc1)N(CCCN)C(=O)c1ccc(C)cc1 (centres unmarked) [Compound 2]
Final Tumor Weight (Mean ± SEM) (SKOV3 tumor xenograft [2]; [11]): 340.8 ± 93.0 mg
Maximum Weight Loss (SKOV3 tumor xenograft [2]; [11]): None
Tumor Growth Inhibition (SKOV3 tumor xenograft [2]; [11]): 81.5%
Mice with Partial Tumor Shrinkage (SKOV3 tumor xenograft [2]; [11]): 0
Mortalities (SKOV3 tumor xenograft [2]; [11]): 0

IC50 (KSP motor domain; R isomer, read-out: R Isomer IC50): < 0.05 µM
IC50 (KSP motor domain; S isomer, read-out: S Isomer IC50): > 0.5 µM
IC50 (KSP motor domain; racemic, read-out: Racemic I C50): < 0.05 µM
Structure (SMILES): CCC(c1nc2cc(Cl)ccc2c(=O)n1Cc1ccccc1)N(CCCN)C(=O)c1ccc(C)cc1 (racemic)

Structure (SMILES): NC(=O)NO [hydroxyurea]
GI50 (A549 cells): 500 µM

Structure (SMILES): CCC(c1nc2cc(Cl)ccc2c(=O)n1Cc1ccccc1)N(CCN)Cc1ccc(C)cc1 (centres unmarked) [Compound 4]
Final Tumor Weight (Mean ± SEM) (SKOV3 tumor xenograft [2]; 4 mg/kg weekly × 3, i.v.): 726.9 ± 147.2 mg
Maximum Weight Loss (SKOV3 tumor xenograft [2]; 4 mg/kg weekly × 3, i.v.): 0.02%
Tumor Growth Inhibition (SKOV3 tumor xenograft [2]; 4 mg/kg weekly × 3, i.v.): 40.1%
Mice with Partial Tumor Shrinkage (SKOV3 tumor xenograft [2]; 4 mg/kg weekly × 3, i.v.): 0
Mortalities (SKOV3 tumor xenograft [2]; 4 mg/kg weekly × 3, i.v.): 1
